The nature of experiment [1]: in vivo screen APCC: blood cholesterol in rats fed overnight a high fat, high cholesterol (PCC) diet. Conditions: male Sprague-Dawley rats, dosed at 4 PM, PCC diet with 0.5% cholic acid overnight, blood sampled 8 AM, dose not given. The source says:
In one in vivo screen designated APCC, male Sprague-Dawley rats (200 to 225 g) were randomly divided into treatment groups and dosed at 4 PM with either vehicle (CMC/Tween) or suspensions of compounds in vehicle. The normal chow diet was then replaced with a high fat, high cholesterol diet (designated PCC) containing 0.5% cholic acid. The rats consumed this diet ad libitum during the night and were sacrificed at 8 AM to obtain blood samples for cholesterol analysis using standard procedures. Statistical differences between mean cholesterol values for the same vehicle were determined using analysis of variance followed by Fisher's least significant test.

The target of experiment [2] is acyl-CoA:cholesterol acyltransferase (ACAT). Briefly: in vitro ACAT inhibition (LAI): radiolabeled cholesterol oleate formed from radiolabeled oleic acid in rat liver microsomes. It is filed as biochemical. Particulars: concentration required to inhibit enzyme activity by 50%. The method, then: The ability of representative compounds of the present invention to inhibit ACAT was measured using an in vitro test more fully described in Field FJ, Salone RG, Biochemica et Biophysica, 1982;712:557-570. The test assesses the ability of a test compound to inhibit the acylation of cholesterol by oleic acid by measuring the amount of radiolabeled cholesterol oleate formed from radiolabeled oleic acid in a tissue preparation containing rat liver microsomes.

The record followed here is patent US5491172A, “N-acyl sulfamic acid esters (or thioesters), N-acyl sulfonamides, and N-sulfonyl carbamic acid esters (or thioesters) as hypercholesterolemic agents” (Warner-Lambert Company, priority 1994, dated 1996).

The term IC50 denotes the concentration needed to halve the response being measured.

Structures can show the parent of a compound that is named as a salt. A value given as a limit tells only on which side of the number the result lay.

As to `CC(C)c1cccc(C(C)C)c1OS(=O)(=O)NC(=O)Cc1ccsc1` [Example 20, sulfamic acid[3-thiophenyl(acetyl)]-2,6-bis(1-methylethyl)phenyl ester], the “% Change (mg/dl) in cholesterol” value in experiment [1] is -19%. In experiment [2], this molecule registered a 50% inhibitory concentration (IC50) above 50 µM.

On to `CC(C)c1cccc(C(C)C)c1OS(=O)(=O)NC(=O)CC12CC3CC(CC(C3)C1)C2` [Example 4, sulfamic acid[adamantaneacetyl]-2,6-bis[1-methylethyl]phenyl ester], for which, in experiment [1], the “% Change (mg/dl) in cholesterol” value is reported as -47%. Moreover, the IC50 in experiment [2] was 13 µM.

On to `CC(C)c1cccc(C(C)C)c1OS(=O)(=O)NC(=O)C1c2ccccc2Oc2ccccc21` [Example 36, sulfamic acid[(9H-xanthen-9-yl)carbonyl]-2,6-bis(1-methylethyl)phenyl ester], for which, in experiment [1], the “% Change (mg/dl) in cholesterol” value is -6%. In experiment [2], this molecule registered a 50% inhibitory concentration (IC50) of 22 µM.

As to `COc1ccccc1CC(=O)NS(=O)(=O)Oc1c(C(C)C)cccc1C(C)C` [Example 21, sulfamic acid[2-methoxyphenyl(acetyl)]-2,6-bis(1-methylethyl)phenyl ester], the “% Change (mg/dl) in cholesterol” value in experiment [1] was -16%. Also, in experiment [2], 55 µM corresponded to half-maximal inhibition (IC50).

With `CC(C)c1cc(C(C)C)c(CCC(=O)NS(=O)(=O)Oc2c(C(C)C)cccc2C(C)C)c(C(C)C)c1` [Example 41, sulfamic acid[1-oxo-3-[2,4,6-tris(1-methylethyl)phenyl]propyl]-2,6-bis(1-methylethyl)phenyl ester], the “% Change (mg/dl) in cholesterol” value in experiment [1] is on record as -73%. In experiment [2], this molecule displayed an IC50 of 28 µM.

As to `CC(C)c1cccc(C(C)C)c1CC(=O)NS(=O)(=O)Oc1c(C(C)C)cccc1C(C)C` [Example 2, sulfamic acid[[2,6-bis(1-methylethyl)phenyl]acetyl]-2,6-bis(1-methylethyl)phenyl ester sodium salt], in experiment [1] (sodium salt), the “% Change (mg/dl) in cholesterol” value was -62%. For the same molecule, the half-inhibitory concentration (IC50) in experiment [2] (sodium salt) was determined as 12 µM.

Regarding `CC(C)c1cc(C(C)C)c(CC(=O)NS(=O)(=O)Oc2c(C(C)C)cccc2C(C)C)c(C(C)C)c1` [Example 5, Sulfamic acid[[2,4,6-tris(1-methylethyl)phenyl]acetyl]-2,6-bis(1-methylethyl)phenylester], the “% Change (mg/dl) in cholesterol” value in experiment [1] is -73%. In experiment [2], this molecule had an IC50 of 12 µM.

Consider `CC(C)c1cccc(C(C)C)c1OS(=O)(=O)NC(=O)C(Br)c1ccccc1` (stereo not shown) [Example 39, sulfamic acid[bromo(phenyl)acetyl]-2,6l-bis(1-methylethyl)phenyl ester], for which the “% Change (mg/dl) in cholesterol” value in experiment [1] was “+5%”. Moreover, the midpoint of inhibition in experiment [2], the IC50, lay at 32 µM.

For `CC(C)c1cccc(C(C)C)c1OS(=O)(=O)NC(=O)C1(c2ccccc2)CCCC1` [Example 30, sulfamic acid[(1-phenylcyclopentyl)carbonyl]-2,6-bis(1-methylethyl)phenyl ester], the “% Change (mg/dl) in cholesterol” value in experiment [1] was -40%. For the same molecule, in experiment [2], 4.1 µM corresponded to half-maximal inhibition (IC50).

As for `CC(C)c1cc(C(C)C)c(CC(=O)NS(=O)(=O)Oc2c(-c3ccccc3)cccc2-c2ccccc2)c(C(C)C)c1` [Example 48, sulfamic acid[[2,4,6-tris(1-methylethyl)phenyl]acetyl]-2,6-bis(phenyl)phenyl ester], the “% Change (mg/dl) in cholesterol” value in experiment [1] was -73%. In experiment [2], this molecule yielded a half-maximal inhibitory concentration (IC50) of 8.3 µM.

As for `CC(C)c1cccc(C(C)C)c1OS(=O)(=O)NC(=O)C1c2ccccc2-c2ccccc21` [Example 37, sulfamic acid[(9H-fluoren-9yl)carbonyl]-2,6-bis(1-methylethyl)phenyl ester], the “% Change (mg/dl) in cholesterol” value in experiment [1] is reported as -50%. Besides, in experiment [2], the half-maximal inhibitory concentration (IC50) was 16 µM.

For `COc1ccc(OC)c(CC(=O)NS(=O)(=O)Oc2c(C(C)C)cccc2C(C)C)c1` [Example 16, sulfamic acid[2,5-dimethoxyphenyl(acetyl)]-2,6-bis(1-methylethyl)phenyl ester], in experiment [1], the “% Change (mg/dl) in cholesterol” value is recorded as “+10%”. Further, the IC50 in experiment [2] is 36 µM.

On to `CC(C)c1cccc(C(C)C)c1OS(=O)(=O)NC(=O)C(c1ccccc1)C1CCCC1` (stereo not shown) [Example 25, sulfamic acid(cyclopentylphenylacetyl)-2,6-bis(1-methylethyl)phenyl ester], for which the “% Change (mg/dl) in cholesterol” value in experiment [1] was -71%. Moreover, the 50% inhibitory concentration (IC50) in experiment [2] is 7.2 µM.

Turning to `CC(C)c1cccc(C(C)C)c1OS(=O)(=O)NC(=O)CC1CCCCC1` [Example 26, sulfamic acid(cyclohexylacetyl)-2,6-bis(1-methylethyl)phenyl ester], the “% Change (mg/dl) in cholesterol” value in experiment [1] is recorded as -26%. The molecule further had a half-inhibitory concentration (IC50) in experiment [2] of 28 µM.

Consider `CCC(C(=O)NS(=O)(=O)Oc1c(C(C)C)cccc1C(C)C)c1ccccc1` (stereo not shown) [Example 32, sulfamic acid(1-oxo-2-phenylbutyl)-2,6-bis(1-methylethyl)phenyl ester], for which the “% Change (mg/dl) in cholesterol” value in experiment [1] was -48%. Also, in experiment [2], half-maximal inhibition (IC50) required 8.9 µM.

Take `CC(C)c1cccc(C(C)C)c1OS(=O)(=O)NC(=O)Cc1ccccc1C(F)(F)F` [Example 23, sulfamic acid[2-trifluoromethylphenyl(acetyl)]-2,6-bis(1-methylethyl)phenyl ester]: the “% Change (mg/dl) in cholesterol” value in experiment [1] was -19%. The molecule further registered a half-maximal inhibitory concentration (IC50) in experiment [2] of 12 µM.

Take `CC(C)c1cccc(C(C)C)c1OS(=O)(=O)NC(=O)Cc1cccs1` [Example 19, sulfamic acid[2-thiophenyl(acetyl)]-2,6-bis(1-methylethyl)phenyl ester]: the “% Change (mg/dl) in cholesterol” value in experiment [1] is -20%. In addition, the half-inhibitory concentration (IC50) in experiment [2] is above 50 µM.
